This is an account of results in ChEMBL document CHEMBL4406894, “Design, synthesis and biological evaluation of novel desloratadine derivatives with anti-inflammatory and H1 antagonize activities” (Bioorg Med Chem Lett, 2019).

Molecules are shown by their SMILES. The source made the active and inactive calls. The calls are words filed in the database; no cut-off is given here.

In data set [1] the test system is Mus musculus. The data set can be described thus: Anti-inflammatory activity in DNFB-induced mouse ear edema model assessed as inhibition in ear swelling at 5 mg/kg relative to control. It is filed as functional.
For data set [2], the species on record is Mus musculus. As to conditions: BALB/C, at 5 mg/kg.
Data set [3] has as its system Mus musculus. The data set can be described thus: Immunosuppressive activity in BALB/C mouse assessed as inhibition in TNFalpha production by TNFalpha level at 5 mg/kg by ELISA. The class given is functional.
The nature of data set [4]: Half life in ICR mouse at 2.5 mg/kg, iv. As to conditions: in vivo. It is filed as ADME, organism-based.
Data set [5] can be described thus: Half life in human liver microsomes incubated for 6 hrs by LC/MS analysis. The class given is ADME, Microsome.
The nature of data set [6]: Half life in mouse liver microsomes incubated for 6 hrs by LC/MS analysis. It is filed as ADME, Microsome.
Data set [7] can be described thus: Half life in rat liver microsomes incubated for 6 hrs by LC/MS analysis. It is filed as ADME, Microsome.
A short description of data set [8]: Intrinsic clearance in human liver microsomes incubated for 6 hrs by LC/MS analysis. It is filed as ADME, Microsome. As to conditions: read-out: CLH.
A short description of data set [9]: Intrinsic clearance in Rat liver microsomes incubated for 6 hrs by LC/MS analysis. As to conditions: read-out: CLH. It is filed as ADME, Microsome.
Data set [10] can be described thus: Half life in dog liver microsomes incubated for 6 hrs by LC/MS analysis. The class given is ADME, Canis lupus familiaris, Microsome.
Data set [11] is described as follows: Toxicity in ICR mouse. As to conditions: in vivo.
Data set [12] is described as follows: Half life in Sprague-Dawley rat at 2 mg/kg, iv. The class given is ADME, organism-based. As to conditions: in vivo.
Data set [13] can be described thus: Toxicity in Sprague-Dawley rat. As to conditions: in vivo.
Data set [14] is described as follows: Half life in Sprague-Dawley rat at 10 mg/kg, po. It is filed as ADME, organism-based. As to conditions: in vivo.
Data set [15] can be described thus: Intrinsic clearance in dog liver microsomes incubated for 6 hrs by LC/MS analysis. The class given is ADME, Canis lupus familiaris, Microsome. As to conditions: read-out: CLH.
Data set [16] is described as follows: Oral bioavailability in Sprague-Dawley rat at 10 mg/kg. As to conditions: in vivo. The class given is ADME, organism-based.
Data set [17] is described as follows: Clearance in Sprague-Dawley rat at 2 mg/kg, iv. It is filed as ADME, organism-based. As to conditions: in vivo.
Data set [18] is described as follows: Intrinsic clearance in mouse liver microsomes incubated for 6 hrs by LC/MS analysis. It is filed as ADME, Microsome. As to conditions: read-out: CLH.
Data set [19] is described as follows: Clearance in ICR mouse at 2.5 mg/kg, iv. The class given is ADME, organism-based. As to conditions: in vivo.
Data set [20] can be described thus: Half life in monkey liver microsomes incubated for 6 hrs by LC/MS analysis. The class given is ADME, Macaca mulatta, Microsome. As to conditions: rhesus monkey.
The nature of data set [21]: Intrinsic clearance in monkey liver microsomes incubated for 6 hrs by LC/MS analysis. It is filed as ADME, Macaca mulatta, Microsome. As to conditions: rhesus monkey, read-out: CLH.

For `COc1cccc(OCC(O)CN2CCC(=C3c4ccc(Cl)cc4CCc4cccnc43)CC2)c1` (configuration not stated), the inhibition in vivo at 5 mg/kg in the data set on Mus musculus [1] amounted to 43.1%. The inhibition entry in the data set listed under Mus musculus [2] is “Active”.

For the molecule `COc1ccccc1OC[C@@H](O)CN1CCC(=C2c3ccc(Cl)cc3CCc3cccnc32)CC1`, the Activity with Mus musculus [3] amounted to 1.18 ng/mL.

As to `COc1ccccc1OCCCN1CCC(=C2c3ccc(Cl)cc3CCc3cccnc32)CC1`, the inhibition in vivo at 5 mg/kg in the data set on Mus musculus [1] amounted to 59.5%. Moreover, in the data set listed under Mus musculus [2], the inhibition entry is “Active”.

Take `Cc1ccccc1OCC(O)CN1CCC(=C2c3ccc(Cl)cc3CCc3cccnc32)CC1` (configuration not stated): the inhibition in vivo at 5 mg/kg with Mus musculus [1] was 59.1%. Also, the inhibition result in the data set filed under Mus musculus [2] was “Active”.

`OC(COc1ccccc1F)CN1CCC(=C2c3ccc(Cl)cc3CCc3cccnc32)CC1` (configuration not stated): the inhibition in vivo at 5 mg/kg in the data set on Mus musculus [1] came out at 26%. For the same molecule, the inhibition entry in the data set filed under Mus musculus [2] was “Active”.

Take `OC(COc1ccccc1)CN1CCC(=C2c3ccc(Cl)cc3CCc3cccnc32)CC1` (configuration not stated): in the data set on Mus musculus [1], the inhibition in vivo at 5 mg/kg amounted to 59.1%. For the same molecule, in the data set filed under Mus musculus [2], the inhibition result is “Active”.

On to `COc1ccccc1OC[C@H](O)CN1CCC(=C2c3ccc(Cl)cc3CCc3cccnc32)CC1`, for which the Activity in the data set on Mus musculus [3] stood at 1.21 ng/mL.

As for `COc1ccccc1OCC(O)CN1CCC(=C2c3ccc(Cl)cc3CCc3cccnc32)CC1` (racemic), the half-life in [4] is 28.2 min; in data set [5] it was 7.74 min; in data set [6], 1.47 min; in data set [7], 3.87 min; in [10] it was 8.76 min; in [12] it was 54 min. In [14], this molecule showed a half-life of 84 min. The inhibition in vivo at 5 mg/kg with Mus musculus [1] stood at 59.2%. Moreover, the microsomal CLint in data set [8] amounted to 179 µL/min/mg; in data set [9] it was 359 µL/min/mg; in data set [15], 158 µL/min/mg; in data set [18], 945 µL/min/mg. Also, the MTD in data set [11] and in [13] was 750 mg/kg each time. The Activity in the data set with Mus musculus [3] was 1.14 ng/mL. Besides, in data set [16], the bioavailability is 18%. Moreover, the clearance in [17] was determined as 1.18 L/h/kg; in data set [19], 5.97 L/h/kg.

With `Clc1ccc2c(c1)CCc1cccnc1C2=C1CCNCC1` [DESLORATADINE], the 50% lethal dose (LD50) in data set [11] and in [13] was 250 mg/kg in each case.

Consider `Cc1ncc2n1-c1ccc(Cl)cc1C(c1ccccc1F)=NC2` [MIDAZOLAM], for which the half-life in [5] was 12 min; in data set [6] it was 8.06 min; in data set [7], 4.29 min; in data set [10] it was 2.81 min; in data set [20] it was 3.74 min. Also, the microsomal CLint in data set [8] is 289 µL/min/mg; in data set [9] it was 808 µL/min/mg; in data set [15], 1230 µL/min/mg; in data set [18], 430 µL/min/mg; in data set [21], 927 µL/min/mg.
